Assays:
[1] = tested on: human platelet suspension (platelet aggregation caused by TxA2 agonist U46619); assay: Platelet aggregation reaction test, U46619-induced; format: cell-based
Experimental: (§1) Blood samples were collected from healthy donors, and acid-citrate-dextrose (ACD) solution was used as an anticoagulant. The blood samples were centrifuged to obtain platelets, and residual plasma was removed by washing to prepare platelet suspension.
(§2) In the experimental method, a platelet aggregometer (Chrono-Log Co., Havertown, PA, USA) was used for tests. The compound to be tested was added to the platelet suspension and reacted for 3 minutes at 37° C. with stirring (1200 rpm). Then, platelet stimulator U46619 or collagen was added to initiate platelet aggregation, and the test time was 5 minutes. The principle of the platelet aggregation test was: when platelets were stimulated to induce aggregation reaction, the light transmission of the platelet suspension would increase; by calculating changes in light transmission of the platelet suspension before and after being stimulated, the percentage of platelet aggregation could be obtained.

[2] = tested on: human platelet suspension (platelet aggregation caused by collagen); assay: Platelet aggregation reaction test, collagen-induced; format: cell-based; settings: read-out: Collagen IC 50
Experimental: as §1, §2

SMILES | IC50 [1] [µM] | IC50 [2] [µM]
O=C(O)COc1ccccc1C(=O)C=Cc1cccs1 [Compound 57] | 71.5 | 15.5
CCCCOc1ccc(C=CC(=O)c2ccc(OCCCC)cc2OCC(=O)OC)cc1 [Compound 90] | > 100 | > 100
O=C(O)COc1ccccc1C(=O)C=Cc1cccnc1 [Compound 60] | 29.3 | 39.8
CCOC(=O)COc1cc(OC)ccc1C(=O)C=Cc1ccc(OC)cc1 [Compound 48] | > 100 | > 100
CCOC(=O)COc1ccc(C=CC(=O)c2ccc(OCC(=O)OCC)cc2OCC(=O)O)cc1 [Compound 84] | 80.8 | > 100
CC(C)=CCCC(C)=CCOc1ccc(C=CC(=O)c2ccc(F)cc2OCCCC(=O)O)cc1 [Compound 10] | 5.24 | 52.5
CCOC(=O)COc1ccccc1C(=O)C=Cc1ccc(O)cc1 [Compound 47] | 35.2 | 16.4
CCCCCCCCOc1ccc(C=CC(=O)c2ccc(OCCCCCCCC)cc2OCC(=O)OC)cc1 [Compound 92] | > 50 | > 50
CC(C)=CCOc1ccc(C(=O)/C=C/c2ccc(Cl)cc2)c(OCC(=O)O)c1 [Compound 24] | 43.4 | 67.6
CCOC(=O)COc1cc(O)ccc1C(=O)C=Cc1ccc(Cl)cc1 [Compound 44] | > 100 | 8.92
CCOC(=O)COc1cc(O)ccc1C(=O)C=Cc1ccc(F)cc1 [Compound 43] | 55.6 | 2.26
CCOC(=O)CCCCCCCOc1ccccc1C(=O)C=Cc1ccccc1 [Compound 106] | 2.84 | 13.1
CCOC(=O)COc1cc(O)ccc1C(=O)C=Cc1ccc(O)c(O)c1 [Compound 41] | 34.9 | 15.2
O=C(O)CCCCCOc1ccccc1C(=O)CCc1cccc(F)c1 [Compound 50] | 0.57 | 0.33
COC(=O)CCCOc1cc(OCC=C(C)C)ccc1C(=O)CCc1ccc(OCC=C(C)C)cc1 [Compound 73] | 10.7 | 62.9
CC(C)=CCOc1ccc(C(=O)C=Cc2cccs2)c(OCCCCCC(=O)O)c1 [Compound 55] | 5.37 | 4.4
CC(C)=CCOc1ccc(C(=O)/C=C/c2ccc(F)cc2)c(OCCCC(=O)O)c1 [Compound 15] | 0.05 | 0.35
CCOC(=O)CCCCCOc1ccccc1C(=O)C=Cc1cccc(F)c1 [Compound 39] | 0.05 | 0.07
COC(=O)COc1cc(OCC(=O)c2ccccc2)ccc1C(=O)C=Cc1ccc(OCC(=O)c2ccccc2)cc1 [Compound 82] | > 100 | ≥ 100
O=C(O)CCCCCCOc1ccccc1C(=O)C=Cc1ccccc1 [Compound 105] | 2.92 | 9.08
CC(C)=CCOc1ccc(C(=O)/C=C/c2ccc([N+](=O)[O-])cc2)c(OCC(=O)O)c1 [Compound 25] | 43.8 | 49.2
CCCCOc1ccc(C=CC(=O)c2ccc(OCCCC)cc2OCC(=O)O)cc1 [Compound 94] | 40.7 | 63.2
CCOC(=O)CCCCCOc1ccccc1C(=O)C=Cc1ccco1 [Compound 62] | 0.48 | 0.58
CCOC(=O)COc1ccccc1C(=O)C=Cc1ccc(O)cc1 [Compound 42] | 38.7 | 1.59
COC(=O)COc1cc(OCc2ccc(OC)cc2)ccc1C(=O)C=Cc1ccc(OCc2ccc(OC)cc2)cc1 [Compound 87] | > 100 | > 100
O=C(O)CCCCCOc1ccccc1C(=O)C=Cc1cccs1 [Compound 51] | 0.57 | 0.62
O=C(O)CCCCCCCOc1ccccc1C(=O)C=Cc1ccccc1 [Compound 107] | 2.49 | 8.35

SMILES | IC50 [1] [µM] | IC50 [2] [µM]
CC(C)=CCOc1ccc(C=CC(=O)c2ccc(OCC=C(C)C)cc2OCCCCC(=O)O)cc1 [Compound 37] | 0.23 | 1.58
COC(=O)COc1cc(OCC=C(C)C)ccc1C(=O)CCc1ccc(OCC=C(C)C)cc1 [Compound 74] | > 100 | > 100
CC(C)=CCOc1ccc(C(=O)/C=C/c2cccc(F)c2)c(OCCCC(=O)O)c1 [Compound 14] | 5.18 | 7.05
COc1ccc(/C=C/C(=O)c2ccc(OC)cc2OCC(=O)O)cc1 [Compound 18] | > 100 | 96.2
CCOC(=O)COc1ccccc1C(=O)C=Cc1ccccc1 [Compound 108] | 15.3 | 3.67
CCCCCCOc1ccc(C=CC(=O)c2ccc(OCCCCCC)cc2OCC(=O)OC)cc1 [Compound 91] | > 50 | > 50
CCCCCCOc1ccc(C=CC(=O)c2ccc(OCCCCCC)cc2OCC(=O)O)cc1 [Compound 95] | 36.9 | 76.3
CCOC(=O)CCCCCCOc1ccccc1C(=O)C=Cc1ccccc1 [Compound 104] | 13.5 | 5.31
O=C(O)CCCCCOc1ccccc1C(=O)C=Cc1nccs1 [Compound 80] | 51.5 | 62.7
CCOC(=O)COc1ccccc1C(=O)C=Cc1cccs1 [Compound 66] | 70.2 | 2.86
CCOC(=O)COc1ccccc1C(=O)C=Cc1ccc(N)cc1 [Compound 46] | 64 | 5.08
O=C(O)COc1cc(F)ccc1C(=O)/C=C/c1ccccc1 [Compound 29] | 1.56 | 7.88
CCCCCCCCCCOc1ccc(C=CC(=O)c2ccc(OCCCCCCCCCC)cc2OCC(=O)OC)cc1 [Compound 93] | > 50 | > 50
O=C(O)CCCCCOc1ccccc1C(=O)C=Cc1ccccn1 [Compound 53] | 50.4 | 44.4
CCCCCCCCCCOc1ccc(C=CC(=O)c2ccc(OCCCCCCCCCC)cc2OCC(=O)O)cc1 [Compound 97] | > 50 | > 50
O=C(O)CCCOc1ccccc1C(=O)C=Cc1ccccc1 [Compound 34] | 9.5 | 6.4
O=C(O)CCCCCOc1ccccc1C(=O)/C=C/c1ccccc1F [Compound 1] | 0.51 | 0.07
O=C(O)CCCCCOc1cc(F)ccc1C(=O)/C=C/c1ccccc1 [Compound 11] | 54.4 | 5.38
CC(C)=CCOc1ccc(C(=O)/C=C/c2ccccc2)c(OCC(=O)O)c1 [Compound 22] | 43.2 | 12.8
CCOC(=O)CCCCCOc1ccccc1C(=O)CCc1ccccc1 [Compound 115] | 0.2 | 5.87
O=C(O)CCCCCOc1ccccc1C(=O)/C=C/c1cccc(F)c1 [Compound 2] | 0.05 | 0.05
CCOC(=O)COc1ccccc1C(=O)C=Cc1ccco1 [Compound 65] | 78.4 | 3.13
CC(C)=CCOc1ccc(C(=O)/C=C/c2ccccc2F)c(OCCCC(=O)O)c1 [Compound 13] | 0.51 | 0.65
CC(C)=CCOc1ccc(C=CC(=O)c2ccc(OCC=C(C)C)cc2OCCCCCC(=O)O)cc1 [Compound 32] | 5.85 | 12.8
CCOC(=O)CCCOc1ccccc1C(=O)C=Cc1ccccc1 [Compound 109] | 9.56 | 4.89
CC(C)=CCOc1ccc(C(=O)/C=C/c2ccccc2OCC=C(C)C)c(OCC(=O)O)c1 [Compound 19] | 20.3 | 15.2

From patent publication US20250387375A1, “SOFALCONE DERIVATIVES AND MEDICAL USE THEREOF” (KAOHSIUNG MEDICAL UNIVERSITY, priority 2024, published 2025)
